Experimental data from PubChem BioAssay (NCI).
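Step 1: Grow cells in 96-well plates. Step 2: Expose to compound for 48 hours at 5 concentrations. Step 3: Interpolate endpoints linearly; if unreached, use highest concentration. GI50 = concentration required for 50% inhibition of growth. TGI denotes the concentration required for complete inhibition of growth.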

Tests used:
Assay in all cases: NCI anticancer screen, dose series, 48 h
ACHN renal = test system: ACHN renal
SNB-19 CNS = test system: SNB-19 CNS
HS 578T breast = test system: HS 578T breast
OVCAR-4 ovarian = test system: OVCAR-4 ovarian
HL-60(TB) leukemia = test system: HL-60(TB) leukemia
BT-549 breast = test system: BT-549 breast
NCI-H522 lung = test system: NCI-H522 lung
CCRF-CEM leukemia = test system: CCRF-CEM leukemia
HOP-62 NSCLC = test system: HOP-62 NSCLC
KM12 colon = test system: KM12 colon
OVCAR-3 ovarian = test system: OVCAR-3 ovarian
PC-3 prostate = test system: PC-3 prostate
OVCAR-8 ovarian = test system: OVCAR-8 ovarian
LOX IMVI melanoma = test system: LOX IMVI melanoma
UACC-62 melanoma = test system: UACC-62 melanoma
SW-620 colon = test system: SW-620 colon
UO-31 renal = test system: UO-31 renal
A498 renal = test system: A498 renal
DU-145 prostate = test system: DU-145 prostate
SR leukemia = test system: SR leukemia
SK-MEL-28 melanoma = test system: SK-MEL-28 melanoma
HT29 colon = test system: HT29 colon
NCI-H23 lung = test system: NCI-H23 lung
SK-MEL-2 melanoma = test system: SK-MEL-2 melanoma
TK-10 renal = test system: TK-10 renal
OVCAR-5 ovarian = test system: OVCAR-5 ovarian
SN12C renal = test system: SN12C renal
SF-268 CNS = test system: SF-268 CNS
MDA-MB-435 = test system: MDA-MB-435
HCT-15 colon = test system: HCT-15 colon
MDA-MB-231 breast = test system: MDA-MB-231 breast
HCC-2998 colon = test system: HCC-2998 colon
HOP-92 NSCLC = test system: HOP-92 NSCLC
A549 NSCLC = test system: A549 NSCLC
SF-295 CNS = test system: SF-295 CNS
SF-539 CNS = test system: SF-539 CNS
SK-OV-3 ovarian = test system: SK-OV-3 ovarian
CAKI-1 renal = test system: CAKI-1 renal
U251 CNS = test system: U251 CNS
MCF7 breast = test system: MCF7 breast
SK-MEL-5 melanoma = test system: SK-MEL-5 melanoma
MOLT-4 leukemia = test system: MOLT-4 leukemia
SNB-75 CNS = test system: SNB-75 CNS
T-47D breast = test system: T-47D breast
COLO 205 colon = test system: COLO 205 colon
K-562 leukemia = test system: K-562 leukemia
HCT-116 colon = test system: HCT-116 colon
RPMI-8226 leukemia = test system: RPMI-8226 leukemia
NCI/ADR-RES ovarian = test system: NCI/ADR-RES ovarian
MALME-3M melanoma = test system: MALME-3M melanoma
NCI-H460 lung = test system: NCI-H460 lung
NCI-H226 lung = test system: NCI-H226 lung
786-0 renal = test system: 786-0 renal
UACC-257 melanoma = test system: UACC-257 melanoma
EKVX NSCLC = test system: EKVX NSCLC
IGROV1 ovarian = test system: IGROV1 ovarian
RXF 393 renal = test system: RXF 393 renal

`CC/C(=N\Nc1nc2ccccc2n1C)c1ccccn1` was tested, and the GI50 (ACHN renal) was < 0.016 µM, the TGI (ACHN renal) was 6.28 µM and the GI50 (SNB-19 CNS) was 0.281 µM. For the same compound, the TGI (SNB-19 CNS) was 14.4 µM, the GI50 (HS 578T breast) was 0.923 µM and the TGI (HS 578T breast) was 12.7 µM. The GI50 (OVCAR-4 ovarian) was < 0.0185 µM, the TGI (OVCAR-4 ovarian) was 4.68 µM and the GI50 (HL-60(TB) leukemia) was 0.0252 µM. The TGI (HL-60(TB) leukemia) was 0.319 µM, the GI50 (BT-549 breast) was 0.243 µM and the TGI (BT-549 breast) was 12.8 µM. For the same compound, the GI50 (NCI-H522 lung) was 0.0392 µM, the TGI (NCI-H522 lung) was 2.33 µM and the GI50 (CCRF-CEM leukemia) was 0.0294 µM. For the same compound, the TGI (CCRF-CEM leukemia) was > 36 µM, the GI50 (HOP-62 NSCLC) was 0.175 µM and the TGI (HOP-62 NSCLC) was 3.34 µM. The GI50 (KM12 colon) was 0.19 µM, the TGI (KM12 colon) was 11.3 µM and the GI50 (OVCAR-3 ovarian) was < 0.01 µM. The TGI (OVCAR-3 ovarian) was 10.9 µM, the GI50 (PC-3 prostate) was 0.0327 µM and the TGI (PC-3 prostate) was 13.8 µM. It also gave a GI50 (OVCAR-8 ovarian) of 0.0929 µM, a TGI (OVCAR-8 ovarian) of 14 µM and a GI50 (LOX IMVI melanoma) of 0.118 µM. For the same compound, the TGI (LOX IMVI melanoma) was 5.32 µM, the GI50 (UACC-62 melanoma) was 0.142 µM and the TGI (UACC-62 melanoma) was 0.839 µM. For the same compound, the GI50 (SW-620 colon) was 0.0393 µM, the TGI (SW-620 colon) was 15 µM and the GI50 (UO-31 renal) was 0.0761 µM. The TGI (UO-31 renal) was 1.16 µM, the GI50 (A498 renal) was 0.153 µM and the TGI (A498 renal) was 0.837 µM. For the same compound, the GI50 (DU-145 prostate) was 0.127 µM, the TGI (DU-145 prostate) was 12.7 µM and the GI50 (SR leukemia) was 0.0428 µM. It also gave a TGI (SR leukemia) of 12.4 µM, a GI50 (SK-MEL-28 melanoma) of 0.214 µM and a TGI (SK-MEL-28 melanoma) of 13.5 µM. The GI50 (HT29 colon) was < 0.0269 µM, the TGI (HT29 colon) was 18 µM and the GI50 (NCI-H23 lung) was 0.0452 µM. The TGI (NCI-H23 lung) was 17.6 µM, the GI50 (SK-MEL-2 melanoma) was 0.589 µM and the TGI (SK-MEL-2 melanoma) was 14.9 µM. It also gave a GI50 (TK-10 renal) of 0.5 µM, a TGI (TK-10 renal) of 12.3 µM and a GI50 (OVCAR-5 ovarian) of 0.156 µM. For the same compound, the TGI (OVCAR-5 ovarian) was 15.6 µM, the GI50 (SN12C renal) was 0.128 µM and the TGI (SN12C renal) was 12.7 µM. For the same compound, the GI50 (SF-268 CNS) was 0.194 µM, the TGI (SF-268 CNS) was 11.1 µM and the GI50 (MDA-MB-435) was 0.224 µM. For the same compound, the TGI (MDA-MB-435) was 12.7 µM, the GI50 (HCT-15 colon) was 0.0141 µM and the TGI (HCT-15 colon) was 12.9 µM. It also gave a GI50 (MDA-MB-231 breast) of 0.14 µM, a TGI (MDA-MB-231 breast) of 11.8 µM and a GI50 (HCC-2998 colon) of 0.314 µM. For the same compound, the TGI (HCC-2998 colon) was 7.23 µM, the GI50 (HOP-92 NSCLC) was 0.184 µM and the TGI (HOP-92 NSCLC) was 4.82 µM. The GI50 (A549 NSCLC) was 0.103 µM, the TGI (A549 NSCLC) was 11.4 µM and the GI50 (SF-295 CNS) was 0.17 µM. It also gave a TGI (SF-295 CNS) of 1.28 µM, a GI50 (SF-539 CNS) of 0.182 µM and a TGI (SF-539 CNS) of 1.62 µM. For the same compound, the GI50 (SK-OV-3 ovarian) was 0.064 µM, the TGI (SK-OV-3 ovarian) was 1.58 µM and the GI50 (CAKI-1 renal) was 0.113 µM. For the same compound, the TGI (CAKI-1 renal) was 1.98 µM, the GI50 (U251 CNS) was 0.0863 µM and the TGI (U251 CNS) was 11 µM. For the same compound, the GI50 (MCF7 breast) was 0.0179 µM, the TGI (MCF7 breast) was 13.9 µM and the GI50 (SK-MEL-5 melanoma) was 0.174 µM. The TGI (SK-MEL-5 melanoma) was 1.39 µM, the GI50 (MOLT-4 leukemia) was < 0.0174 µM and the TGI (MOLT-4 leukemia) was 7.47 µM. The GI50 (SNB-75 CNS) was 0.478 µM, the TGI (SNB-75 CNS) was 8.84 µM and the GI50 (T-47D breast) was < 0.01 µM. For the same compound, the TGI (T-47D breast) was 4.59 µM, the GI50 (COLO 205 colon) was < 0.01 µM and the TGI (COLO 205 colon) was 2.94 µM. The GI50 (K-562 leukemia) was 0.0102 µM, the TGI (K-562 leukemia) was > 100 µM and the GI50 (HCT-116 colon) was < 0.01 µM. For the same compound, the TGI (HCT-116 colon) was 11.8 µM, the GI50 (RPMI-8226 leukemia) was 0.033 µM and the TGI (RPMI-8226 leukemia) was 6.29 µM. The GI50 (NCI/ADR-RES ovarian) was 0.0382 µM, the TGI (NCI/ADR-RES ovarian) was 4.9 µM and the GI50 (MALME-3M melanoma) was 0.127 µM. For the same compound, the TGI (MALME-3M melanoma) was 10.3 µM, the GI50 (NCI-H460 lung) was 0.114 µM and the TGI (NCI-H460 lung) was 1.82 µM. It also gave a GI50 (NCI-H226 lung) of 0.117 µM, a TGI (NCI-H226 lung) of 1.05 µM and a GI50 (786-0 renal) of 0.211 µM. It also gave a TGI (786-0 renal) of 1.52 µM, a GI50 (UACC-257 melanoma) of 0.0735 µM and a TGI (UACC-257 melanoma) of 2.64 µM. It also gave a GI50 (EKVX NSCLC) of 0.0369 µM, a TGI (EKVX NSCLC) of 7.47 µM and a GI50 (IGROV1 ovarian) of 0.0294 µM. The TGI (IGROV1 ovarian) was 7.76 µM, the GI50 (RXF 393 renal) was 0.193 µM and the TGI (RXF 393 renal) was 1.41 µM.
